Results published in article PMC8544188 (Molecular Diversity, 2021).
Entries after “also recorded” stand apart in the source; their conditions may differ.

How the values were obtained:
α-glucosidase [1] = molecular target: T1, α-glucosidase (Saccharomyces cerevisiae, UniProt P53341); experiment: α-glucosidase inhibition assay; type: biochemical
α-glucosidase [2] = molecular target: T1, α-glucosidase; experiment: Enzyme kinetic studies; type: biochemical; conditions: Lineweaver–Burk plot: Km increased, Vmax unchanged

T1 sequence (P53341 whole entry): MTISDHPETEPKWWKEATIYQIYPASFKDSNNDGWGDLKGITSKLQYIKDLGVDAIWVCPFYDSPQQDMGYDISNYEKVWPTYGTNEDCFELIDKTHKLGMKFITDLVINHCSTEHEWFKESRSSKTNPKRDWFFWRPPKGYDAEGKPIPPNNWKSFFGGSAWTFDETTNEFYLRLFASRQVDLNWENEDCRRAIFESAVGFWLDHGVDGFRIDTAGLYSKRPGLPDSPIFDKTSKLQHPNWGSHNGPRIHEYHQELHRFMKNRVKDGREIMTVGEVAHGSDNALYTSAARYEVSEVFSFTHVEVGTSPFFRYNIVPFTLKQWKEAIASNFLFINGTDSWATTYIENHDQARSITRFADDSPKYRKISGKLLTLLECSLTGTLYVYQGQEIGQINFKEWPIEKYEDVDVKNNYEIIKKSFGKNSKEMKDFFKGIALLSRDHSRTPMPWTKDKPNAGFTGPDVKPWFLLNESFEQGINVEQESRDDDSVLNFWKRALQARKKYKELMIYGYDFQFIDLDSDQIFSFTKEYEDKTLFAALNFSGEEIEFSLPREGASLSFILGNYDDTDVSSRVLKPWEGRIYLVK

`N#CC(C(N)=O)c1c(-c2ccccc2)[nH]c2c1c(=O)oc1ccccc12` (stereo not shown) [4a, 2-cyano-2-(4-oxo-2-phenyl-1,4-dihydrochromeno[4,3-b]pyrrol-3-yl)acetamide] was tested, and the “fold improvement in inhibitory potency compared to acarbose (positive control)” value (α-glucosidase [1]; ratio of IC50 values versus acarbose) was “around fivefold”.
For `N#CCc1c(-c2ccccc2)[nH]c2c1c(=O)oc1ccc(Cl)cc12` [5b, 2-(8-chloro-4-oxo-2-phenyl-1,4-dihydrochromeno[4,3-b]pyrrol-3-yl)acetonitrile], the “α-glucosidase inhibitory activity in words” value (α-glucosidase [1]) was “diminished the inhibitory activity completely”.
In the case of `N#CCc1c(-c2ccc(Cl)cc2)[nH]c2c1c(=O)oc1ccccc12` [5d, 2-(2-(4-chlorophenyl)-4-oxo-1,4-dihydrochromeno[4,3-b]pyrrol-3-yl)acetonitrile], the “fold increase in potency compared to 5a” value (α-glucosidase [1]; ratio of IC50 values versus 5a) is reported as “around fivefold”.
For `COc1ccc(-c2[nH]c3c(c2CC#N)c(=O)oc2ccccc23)cc1` [5e, 2-(2-(4-methoxyphenyl)-4-oxo-1,4-dihydrochromeno[4,3-b]pyrrol-3-yl)acetonitrile], the mode of inhibition (α-glucosidase [2]) was “competitive inhibition; also recorded: competitive inhibitor”.
